Tests used:
[1] = test system: neuronal cell death in the hippocampus; assay: neuronal cell death in the hippocampus of mice treated with Compound A and diazepam; assay type: in vivo; conditions: Compound A and diazepam vs diazepam alone
[2] = PK studies, brain and plasma levels by LC-MS/MS; assay type: in vivo; conditions: mice
Description: PK studies. […] Plasma and brain samples were rapidly frozen on dry ice.
Drug accumulation in the brain was examined following SC injection (FIG. 4C; 50 mg/kg).

KCC2 = target: T1, KCC2 (Homo sapiens, UniProt Q9H2X9); assay: cellular thermal shift assay (CETSA) in HEK-293 cells expressing KCC2; assay type: binding
T1 construct: expressed in transfected cells; host or cells: HEK-293 (ATCC CRL-1573)
T1 sequence (Q9H2X9 1-1116 isoform Q9H2X9-2): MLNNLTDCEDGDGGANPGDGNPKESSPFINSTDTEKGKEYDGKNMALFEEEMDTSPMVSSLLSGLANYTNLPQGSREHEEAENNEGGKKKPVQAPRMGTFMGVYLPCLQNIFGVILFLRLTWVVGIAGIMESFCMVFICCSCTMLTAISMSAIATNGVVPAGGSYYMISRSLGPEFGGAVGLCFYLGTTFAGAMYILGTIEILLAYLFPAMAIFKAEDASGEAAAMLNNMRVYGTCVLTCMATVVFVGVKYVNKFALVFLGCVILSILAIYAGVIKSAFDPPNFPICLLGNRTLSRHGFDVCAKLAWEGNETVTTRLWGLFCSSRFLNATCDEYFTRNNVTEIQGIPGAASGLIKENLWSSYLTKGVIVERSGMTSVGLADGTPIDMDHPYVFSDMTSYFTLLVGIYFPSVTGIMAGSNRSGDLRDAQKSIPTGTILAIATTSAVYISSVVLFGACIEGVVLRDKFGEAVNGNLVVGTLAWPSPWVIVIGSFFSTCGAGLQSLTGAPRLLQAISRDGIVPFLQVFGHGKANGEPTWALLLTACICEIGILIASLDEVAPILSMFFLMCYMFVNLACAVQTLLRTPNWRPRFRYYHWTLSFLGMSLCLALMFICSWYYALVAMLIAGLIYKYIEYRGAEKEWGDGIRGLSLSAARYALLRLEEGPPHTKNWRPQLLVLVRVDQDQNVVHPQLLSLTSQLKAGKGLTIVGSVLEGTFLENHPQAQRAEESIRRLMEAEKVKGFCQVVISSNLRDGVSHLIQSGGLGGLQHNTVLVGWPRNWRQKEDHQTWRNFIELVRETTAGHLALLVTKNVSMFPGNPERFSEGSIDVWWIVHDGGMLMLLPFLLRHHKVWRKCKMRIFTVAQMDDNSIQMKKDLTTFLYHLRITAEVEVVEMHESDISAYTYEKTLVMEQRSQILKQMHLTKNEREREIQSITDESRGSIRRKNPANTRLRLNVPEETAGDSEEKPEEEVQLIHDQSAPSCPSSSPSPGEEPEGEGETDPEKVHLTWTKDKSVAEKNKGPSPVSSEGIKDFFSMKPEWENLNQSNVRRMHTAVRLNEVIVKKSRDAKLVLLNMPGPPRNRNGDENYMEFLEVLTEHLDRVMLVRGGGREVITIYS
Description: Cell Culture and biotinylation. HEK-293 cells were purchased from ATCC (CRL-1573) and transfected with human KCC2 and GFP expression plasmids using Lipofectamine 2000. Cells were utilized for experimentation 48-72 h following transfection. Cells were biotinylated at 4° C. using NHS-Biotin. Following lysis and purification on immobilized avidin beads, cell surface and total fractions were subject to immunoblotting as outlined previously (Conway et al., 2017, supra).
Determining if compounds in SSA directly interact with KCC2. This was tested using a cellular thermal shift assay (CETSA), which measures the ability of a drug to modify the thermal stability of its target in whole cells (Kawatkar et al., ACS Chem. Biol. 14, 1913-1920 (2019); Martinez et al., Sci Rep 8, 9472 (2018)).
2×10^6 transfected HEK-293 cells were incubated with 30 μM drug or vehicle for 90 min at 37° C. and then heated from 37-58° C. for 5 min. Cells were rapidly chilled to 25° C. and NP40 was added to a final concentration […] to snap freezing in liquid nitrogen. […]
Aliquots of HEK-293 cells expressing KCC2 were exposed to 30 μM SSA, heated from 37-55° C. The remaining level of soluble native KCC2 at each temperature was measured by immunoblotting and normalized to the level seen at 37° C. which was given a value of 1. […]

For `C[C@@H]1CN(c2nc3c(c(Nc4ccc(C5CCCCC5)cc4)n2)COC3)CCO1` [Compound A, (R)—N-(4-cyclohexylphenyl)-2-(2-methylmorpholino)-5,7-dihydrofuro[3,4-d]pyrimidin-4-amine], the “neuronal cell death in the hippocampus” value [1] was “significantly reduced”, the “time at which accumulation in the brain was evident” value ([2]; 25 mg/kg IV bolus) was no more than 30 min and the “brain level 8 h later” value ([2]; SC 50 mg/kg) was “maintained”. The “time at which accumulation in the brain was detected” value ([2]; SC 50 mg/kg) was 30 min, the “time of maximal concentration in the brain” value ([2]; SC 50 mg/kg) was 4 h and the “direct binding to KCC2 as measured using CETSA” value (KCC2) was “capable of directly binding to KCC2”.

Source: patent publication US20250281498A1, “FUSED AMINO PYRIMIDINE COMPOUNDS FOR TREATMENT OF SYNUCLEINOPATHIES AND TDP-43 PROTEINOPATHIES” (Ovid Therapeutics Inc., priority 2024, published 2025)
